Assay results taken from PubChem BioAssay AID1963440 (Molecular Pharmacology Branch, DTP, NCI, 2024).
Values belong to the compound of their own block, whether it stands above or below them.

System: NCI-H1417 complex spheroids, growth % test/control
Test: Anticancer human tumor NCI-H1417 cell line growth inhibition [Asc];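 note: spheroids exposed to compounds for 7 days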;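 for viability, T/C: 100% = DMSO vehicle control wells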
Conditions: for IC50: curve of first compound; for viability, T/C: stronger effect = lower value
Method in brief: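 Tumor cells were grown as multicellular spheroids with stromal HUVEC and mesenchymal stem cells and treated singly or in combination. Concentrations fell in half-log steps from the clinical Cmax, or from 10 microM where none was known.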

IC50 (second compound 0.03 µM): > 3 µM
IC50 (second compound 0.0949 µM): > 3 µM
IC50 (second compound 0.3 µM): > 3 µM
IC50 (second compound 0.949 µM): > 3 µM
IC50 (second compound 3 µM): > 3 µM
Structure (SMILES): Cc1nc(N2CCC3(CC2)COC(C)C3N)c(CO)nc1Sc1ccnc(N)c1Cl (centres undefined) + CCN1C(C(=O)NC23CCC(C(=O)O)(CC2)CC3)C(c2cccc(Cl)c2F)C2(C(=O)Nc3cc(Cl)ccc32)C12CCCCC2
viability, T/C (second compound 0.03 µM, first compound 0.00949 µM): 106%
viability, T/C (second compound 0.03 µM, first compound 0.03 µM): 104%
viability, T/C (second compound 0.03 µM, first compound 0.0949 µM): 92.1%
viability, T/C (second compound 0.03 µM, first compound 0.3 µM): 86.1%
viability, T/C (second compound 0.03 µM, first compound 0.949 µM): 90.4%
viability, T/C (second compound 0.03 µM, first compound 3 µM): 82.6%
viability, T/C (second compound 0.0949 µM, first compound 0.00949 µM): 92.8%
viability, T/C (second compound 0.0949 µM, first compound 0.03 µM): 89.5%
viability, T/C (second compound 0.0949 µM, first compound 0.0949 µM): 91.4%
viability, T/C (second compound 0.0949 µM, first compound 0.3 µM): 82.1%
viability, T/C (second compound 0.0949 µM, first compound 0.949 µM): 87.8%
viability, T/C (second compound 0.0949 µM, first compound 3 µM): 79.4%
viability, T/C (second compound 0.3 µM, first compound 0.00949 µM): 98.6%
viability, T/C (second compound 0.3 µM, first compound 0.03 µM): 104%
viability, T/C (second compound 0.3 µM, first compound 0.0949 µM): 106%
viability, T/C (second compound 0.3 µM, first compound 0.3 µM): 82.7%
viability, T/C (second compound 0.3 µM, first compound 0.949 µM): 92.9%
viability, T/C (second compound 0.3 µM, first compound 3 µM): 82.5%
viability, T/C (second compound 0.949 µM, first compound 0.00949 µM): 103%
viability, T/C (second compound 0.949 µM, first compound 0.03 µM): 93.9%
viability, T/C (second compound 0.949 µM, first compound 0.0949 µM): 97.4%
viability, T/C (second compound 0.949 µM, first compound 0.3 µM): 78.3%
viability, T/C (second compound 0.949 µM, first compound 0.949 µM): 73.3%
viability, T/C (second compound 0.949 µM, first compound 3 µM): 84.4%
viability, T/C (second compound 3 µM, first compound 0.00949 µM): 88.9%
viability, T/C (second compound 3 µM, first compound 0.03 µM): 95%
viability, T/C (second compound 3 µM, first compound 0.0949 µM): 96.5%
viability, T/C (second compound 3 µM, first compound 0.3 µM): 99.7%
viability, T/C (second compound 3 µM, first compound 0.949 µM): 79.9%
viability, T/C (second compound 3 µM, first compound 3 µM): 80.3%

IC50 (second compound 0.00316 µM): > 10 µM
IC50 (second compound 0.01 µM): > 10 µM
IC50 (second compound 0.0316 µM): > 10 µM
IC50 (second compound 0.1 µM): > 10 µM
IC50 (second compound 0.316 µM): > 10 µM
IC50 (second compound 1 µM): > 10 µM
Structure (SMILES): C#Cc1c(F)ccc2cc(O)cc(-c3ncc4c(N5CC6CCC(C5)N6)nc(OCC56CCCN5CC(F)C6)nc4c3F)c12 (centres undefined) + CNC(C)C(=O)NC1CN(S(=O)(=O)c2cccc(S(=O)(=O)N3CCC4CCC(C(=O)NC(c5ccccc5)c5ccccc5)N4C(=O)C(NC(=O)C(C)NC)C3)c2)CCC2CCC(C(=O)NC(c3ccccc3)c3ccccc3)N2C1=O
viability, T/C (second compound 0.00316 µM, first compound 0.0316 µM): 96.1%
viability, T/C (second compound 0.00316 µM, first compound 0.1 µM): 87.6%
viability, T/C (second compound 0.00316 µM, first compound 0.316 µM): 99.3%
viability, T/C (second compound 0.00316 µM, first compound 1 µM): 95.7%
viability, T/C (second compound 0.00316 µM, first compound 3.16 µM): 81.7%
viability, T/C (second compound 0.00316 µM, first compound 10 µM): 65%
viability, T/C (second compound 0.01 µM, first compound 0.0316 µM): 98%
viability, T/C (second compound 0.01 µM, first compound 0.1 µM): 90%
viability, T/C (second compound 0.01 µM, first compound 0.316 µM): 82.2%
viability, T/C (second compound 0.01 µM, first compound 1 µM): 98.1%
viability, T/C (second compound 0.01 µM, first compound 3.16 µM): 93.2%
viability, T/C (second compound 0.01 µM, first compound 10 µM): 66.4%
viability, T/C (second compound 0.0316 µM, first compound 0.0316 µM): 101%
viability, T/C (second compound 0.0316 µM, first compound 0.1 µM): 90.6%
viability, T/C (second compound 0.0316 µM, first compound 0.316 µM): 91.1%
viability, T/C (second compound 0.0316 µM, first compound 1 µM): 98.2%
viability, T/C (second compound 0.0316 µM, first compound 3.16 µM): 88.9%
viability, T/C (second compound 0.0316 µM, first compound 10 µM): 69.3%
viability, T/C (second compound 0.1 µM, first compound 0.0316 µM): 89.5%
viability, T/C (second compound 0.1 µM, first compound 0.1 µM): 91.5%
viability, T/C (second compound 0.1 µM, first compound 0.316 µM): 86%
viability, T/C (second compound 0.1 µM, first compound 1 µM): 97.6%
viability, T/C (second compound 0.1 µM, first compound 3.16 µM): 91.2%
viability, T/C (second compound 0.1 µM, first compound 10 µM): 69.8%
viability, T/C (second compound 0.316 µM, first compound 0.0316 µM): 82.3%
viability, T/C (second compound 0.316 µM, first compound 0.1 µM): 80.9%
viability, T/C (second compound 0.316 µM, first compound 0.316 µM): 87.1%
viability, T/C (second compound 0.316 µM, first compound 1 µM): 86.7%
viability, T/C (second compound 0.316 µM, first compound 3.16 µM): 91.2%
viability, T/C (second compound 0.316 µM, first compound 10 µM): 64.6%
viability, T/C (second compound 1 µM, first compound 0.0316 µM): 97.5%
viability, T/C (second compound 1 µM, first compound 0.1 µM): 80.9%
viability, T/C (second compound 1 µM, first compound 0.316 µM): 89.6%
viability, T/C (second compound 1 µM, first compound 1 µM): 84.3%
viability, T/C (second compound 1 µM, first compound 3.16 µM): 86.7%
viability, T/C (second compound 1 µM, first compound 10 µM): 66.8%

IC50 (second compound 0.00316 µM): > 3 µM
IC50 (second compound 0.01 µM): > 3 µM
IC50 (second compound 0.0316 µM): > 3 µM
IC50 (second compound 0.1 µM): > 3 µM
IC50 (second compound 0.316 µM): > 3 µM
IC50 (second compound 1 µM): > 3 µM
Structure (SMILES): Cc1nc(N2CCC3(CC2)COC(C)C3N)c(CO)nc1Sc1ccnc(N)c1Cl (centres undefined) + CNC(C)C(=O)NC1CN(S(=O)(=O)c2cccc(S(=O)(=O)N3CCC4CCC(C(=O)NC(c5ccccc5)c5ccccc5)N4C(=O)C(NC(=O)C(C)NC)C3)c2)CCC2CCC(C(=O)NC(c3ccccc3)c3ccccc3)N2C1=O
viability, T/C (second compound 0.00316 µM, first compound 0.00949 µM): 99.4%
viability, T/C (second compound 0.00316 µM, first compound 0.03 µM): 89%
viability, T/C (second compound 0.00316 µM, first compound 0.0949 µM): 85.8%
viability, T/C (second compound 0.00316 µM, first compound 0.3 µM): 81.9%
viability, T/C (second compound 0.00316 µM, first compound 0.949 µM): 93.4%
viability, T/C (second compound 0.00316 µM, first compound 3 µM): 92.6%
viability, T/C (second compound 0.01 µM, first compound 0.00949 µM): 91.9%
viability, T/C (second compound 0.01 µM, first compound 0.03 µM): 100%
viability, T/C (second compound 0.01 µM, first compound 0.0949 µM): 89.3%
viability, T/C (second compound 0.01 µM, first compound 0.3 µM): 87.8%
viability, T/C (second compound 0.01 µM, first compound 0.949 µM): 96.9%
viability, T/C (second compound 0.01 µM, first compound 3 µM): 84.1%
viability, T/C (second compound 0.0316 µM, first compound 0.00949 µM): 93.9%
viability, T/C (second compound 0.0316 µM, first compound 0.03 µM): 92.2%
viability, T/C (second compound 0.0316 µM, first compound 0.0949 µM): 101%
viability, T/C (second compound 0.0316 µM, first compound 0.3 µM): 83.6%
viability, T/C (second compound 0.0316 µM, first compound 0.949 µM): 98.2%
viability, T/C (second compound 0.0316 µM, first compound 3 µM): 79%
viability, T/C (second compound 0.1 µM, first compound 0.00949 µM): 87.5%
viability, T/C (second compound 0.1 µM, first compound 0.03 µM): 86.6%
viability, T/C (second compound 0.1 µM, first compound 0.0949 µM): 91.7%
viability, T/C (second compound 0.1 µM, first compound 0.3 µM): 86.2%
viability, T/C (second compound 0.1 µM, first compound 0.949 µM): 86.9%
viability, T/C (second compound 0.1 µM, first compound 3 µM): 86.2%
viability, T/C (second compound 0.316 µM, first compound 0.00949 µM): 82.8%
viability, T/C (second compound 0.316 µM, first compound 0.03 µM): 90.2%
viability, T/C (second compound 0.316 µM, first compound 0.0949 µM): 88%
viability, T/C (second compound 0.316 µM, first compound 0.3 µM): 88.8%
viability, T/C (second compound 0.316 µM, first compound 0.949 µM): 84.1%
viability, T/C (second compound 0.316 µM, first compound 3 µM): 94.2%
viability, T/C (second compound 1 µM, first compound 0.00949 µM): 78.1%
viability, T/C (second compound 1 µM, first compound 0.03 µM): 98.6%
viability, T/C (second compound 1 µM, first compound 0.0949 µM): 90.2%
viability, T/C (second compound 1 µM, first compound 0.3 µM): 89.8%
viability, T/C (second compound 1 µM, first compound 0.949 µM): 83.7%
viability, T/C (second compound 1 µM, first compound 3 µM): 87.7%
